Tested on: mice
Assay: Analgesic effect of intragastric administration on mice measured with hot-plate test
Format: in vivo, ICR mice
Details: x ± s, n = 10; for pain threshold after administration / pain threshold before administration: Table 3 screening; for pain threshold after administration: 1 hour; for pain threshold before administration: group dosed 0.6 mg/kg intragastric
Procedure: The analgesic effect with a single dose of the compounds represented by Formula I is preliminarily screened at single time point through hot-plate test, with fortanodyn and aspirin as positive controls. All of the compounds are administered intragastrically.
On the basis of preliminary screening results, several representative compounds were selected to test their analgesic duration, and a part of the results is listed in Table 4. The results illustrate that the analgesic duration of most compounds is longer than 2 hours after a single oral administration, and that some of the compounds have analgesic duration lasting longer than 4 hours.
Furthermore, the dose-effect relationship on an analgesic model of two compounds was tested and the results are shown in Table 5.
Analgesic effect of intragastric administration on mice measured with hot-plate test
Female ICR mice, weight 20+2 g, were purchased from Department of Laboratory Animal Science, Beijing University, animal license number: SCXK 2002-0001.
A) Samples: samples were prepared as mixtures with 0.9% NaCl solution for intragastric administration to mice.
B) Fortanodyn: 30 mg/pill (TianJin LiSheng Pharmaceutical Co. Ltd, lot number: 0201001), 1.5 mg/mL solution was prepared with 0.9% NaCl solution for intragastric administration to mice.
1) Hot-plate test on mice was employed. A thermostatic water bath was adjusted at 55±0.5° C., the bottom of metal plates contacted water surface and used as stimuli after heating. The time span(s) from the point when the mouse was placed onto the hot-plate to the time when the mouse started to lick its metapedes was determined as its pain threshold, which was recorded by stopwatch. Female mice with a weight of 20±2 g were used. The pain threshold of every mouse was measured twice before administration, and the qualified mice are the ones whose average pain threshold was less than 30 seconds.
The qualified mice were randomly grouped with 10 mice in each group. The pain threshold before administration was determined as the basic pain threshold. To the medication administration team, drugs of different dose were given through intragastric administration, whereas to the control group, 0.9% NaCl solution was given. The administration volume was 0.2 mL for every 10 g body weight. The pain threshold of each group was measured at 1 hour after administration.
After administration the pain threshold of each group at different time was measured. The experimental data was statistically treated with t-test using SPSS10 statistics software.

SMILES | pain threshold after administration (0.6 mg/kg intragastric) | pain threshold before administration (baseline) | also measured
CC(=O)Oc1ccccc1C(=O)O [Aspirin, reference compound] | – | – | pain threshold after administration (100 mg/kg intragastric): 18.2 ± 3.71 s; pain-threshold after administration (time course, 100 mg/kg intragastric, 30 min): 18.1 ± 5.40 s; pain-threshold after administration (time course, 100 mg/kg intragastric, 60 min): 18.0 ± 3.80 s; pain-threshold after administration (time course, 100 mg/kg intragastric, 120 min): 14.0 ± 3.63 s; pain-threshold after administration (time course, 100 mg/kg intragastric, 180 min): 14.3 ± 3.62 s
C/C=C1\[C@H]2C=C(C)C[C@]1(/N=C/C=C/c1cccc(C)c1)c1ccc(=O)[nH]c1C2 [Example 4, (5R,9R,11E)-5-(3-(3-methylphenyl)prop-2-en-1-ylideneamino)-11-ethylidene-5,6,9,10-tetrahydro-7-methyl-5,9-methanocycloocta[b]pyridin-2(1H)-one] | 27.0 ± 5.40 s | 12.2 ± 3.31 s | –
C/C=C1\[C@H]2C=C(C)C[C@]1(/N=C/C=C/c1ccccc1C)c1ccc(=O)[nH]c1C2 [Example 5, (5R,9R,11E)-5-(3-(2-methylphenyl)prop-2-en-1-ylideneamino)-11-ethylidene-5,6,9,10-tetrahydro-7-methyl-5,9-methanocycloocta[b]pyridin-2(1H)-one] | 27.6 ± 6.22 s | 12.8 ± 3.12 s | –
C/C=C1\[C@H]2C=C(C)C[C@]1(/N=C/C=C/c1ccc(C)cc1)c1ccc(=O)[nH]c1C2 [Example 6, (5R,9R,11E)-5-(3-(4-methylphenyl)prop-2-en-1-ylideneamino)-11-ethylidene-5,6,9,10-tetrahydro-7-methyl-5,9-methanocycloocta[b]pyridin-2(1H)-one] | – | – | pain-threshold after administration (time course, 0.76 mg/kg intragastric, 30 min): 24.8 ± 8.77 s; pain-threshold after administration (time course, 0.76 mg/kg intragastric, 60 min): 31.9 ± 7.76 s; pain-threshold after administration (time course, 0.76 mg/kg intragastric, 120 min): 22.6 ± 8.37 s; pain-threshold after administration (time course, 0.76 mg/kg intragastric, 180 min): 25.9 ± 11.50 s; pain-threshold after administration (time course, 0.76 mg/kg intragastric, 240 min): 24.5 ± 10.55 s; pain-threshold before administration (time course, group dosed 0.76 mg/kg intragastric, baseline): 11.6 ± 4.14 s
C/C=C1\[C@H]2C=C(C)C[C@]1(/N=C/C=C(\C)c1ccccc1)c1ccc(=O)[nH]c1C2 [Example 7, (5R,9R,11E)-5-(3-methyl-3-phenylprop-2-en-1-ylideneamino)-11-ethylidene-5,6,9,10-tetrahydro-7-methyl-5,9-methanocycloocta[b]pyridin-2(1H)-one] | 24.6 ± 5.61 s | 12.4 ± 2.33 s | –
C/C=C1\[C@H]2C=C(C)C[C@]1(/N=C/C=C/C=C/c1ccccc1)c1ccc(=O)[nH]c1C2 [Example 8, (5R,9R,11E)-5-(5-phenylpenta-2,4-dien-1-ylideneamino)-11-ethylidene-5,6,9,10-tetrahydro-7-methyl-5,9-methanocycloocta[b]pyridin-2(1H)-one] | 23.0 ± 3.52 s | – | –
C/C=C1\[C@H]2C=C(C)C[C@]1(/N=C/C=C/C=C/C=C/c1ccccc1)c1ccc(=O)[nH]c1C2 [Example 9, (5R,9R,11E)-5-(7-phenylhepta-2,4,6-trien-1-ylideneamino)-11-ethylidene-5,6,9,10-tetrahydro-7-methyl-5,9-methanocycloocta[b]pyridin-2(1H)-one] | 25.8 ± 4.35 s | 12.4 ± 2.58 s | –
C/C=C1\[C@H]2C=C(C)C[C@]1(N=CC(Br)=Cc1ccccc1)c1ccc(=O)[nH]c1C2 [Example 10, (5R,9R,11E)-5-(2-bromo-3-phenylprop-2-en-1-ylideneamino)-11-ethylidene-5,6,9,10-tetrahydro-7-methyl-5,9-methanocycloocta[b]pyridin-2(1H)-one] | 21.0 ± 3.16 s | 11.8 ± 3.54 s | –
C/C=C1\[C@H]2C=C(C)C[C@]1(/N=C/C=C/c1cccc(Br)c1)c1ccc(=O)[nH]c1C2 [Example 11, (5R,9R,11E)-5-(3-(3-bromophenyl)prop-2-en-1-ylideneamino)-11-ethylidene-5,6,9,10-tetrahydro-7-methyl-5,9-methanocycloocta[b]pyridin-2(1H)-one] | 23.0 ± 4.98 s | 12.8 ± 3.12 s | –
C/C=C1\[C@H]2C=C(C)C[C@]1(/N=C/C=C/c1ccccc1Br)c1ccc(=O)[nH]c1C2 [Example 12, (5R,9R,11E)-5-(3-(2-bromophenyl)prop-2-en-1-ylideneamino)-11-ethylidene-5,6,9,10-tetrahydro-7-methyl-5,9-methanocycloocta[b]pyridin-2(1H)-one] | 19.6 ± 4.03 s | 12.4 ± 2.58 s | –
C/C=C1\[C@H]2C=C(C)C[C@]1(/N=C/C=C/c1ccc(Br)cc1)c1ccc(=O)[nH]c1C2 [Example 13, (5R,9R,11E)-5-(3-(4-bromophenyl)prop-2-en-1-ylideneamino)-11-ethylidene-5,6,9,10-tetrahydro-7-methyl-5,9-methanocycloocta[b]pyridin-2(1H)-one] | 22.0 ± 4.86 s | – | –
C/C=C1\[C@H]2C=C(C)C[C@]1(/N=C/C=C/c1cccc(Cl)c1)c1ccc(=O)[nH]c1C2 [Example 15, (5R,9R,11E)-5-(3-(3-chlorophenyl)prop-2-en-1-ylideneamino)-11-ethylidene-5,6,9,10-tetrahydro-7-methyl-5,9-methanocycloocta[b]pyridin-2(1H)-one] | 28.8 ± 3.92 s | 13.0 ± 3.63 s | –
C/C=C1\[C@H]2C=C(C)C[C@]1(/N=C/C=C/c1ccccc1Cl)c1ccc(=O)[nH]c1C2 [Example 16, (5R,9R,11E)-5-(3-(2-chlorophenyl)prop-2-en-1-ylideneamino)-11-ethylidene-5,6,9,10-tetrahydro-7-methyl-5,9-methanocycloocta[b]pyridin-2(1H)-one] | 27.4 ± 5.16 s | 13.2 ± 3.76 s | –
C/C=C1\[C@H]2C=C(C)C[C@]1(/N=C/C=C/c1ccc(OC)cc1)c1ccc(=O)[nH]c1C2 [Example 17, (5R,9R,11E)-5-(3-(4-methoxylphenyl)prop-2-en-1-ylideneamino)-11-ethylidene-5,6,9,10-tetrahydro-7-methyl-5,9-methanocycloocta[b]pyridin-2(1H)-one] | 24.6 ± 5.46 s | 12.2 ± 2.14 s | –
C/C=C1\[C@H]2C=C(C)C[C@]1(/N=C/C=C/c1ccccc1OC)c1ccc(=O)[nH]c1C2 [Example 18, (5R,9R,11E)-5-(3-(2-methoxylphenyl)prop-2-en-1-ylideneamino)-11-ethylidene-5,6,9,10-tetrahydro-7-methyl-5,9-methanocycloocta[b]pyridin-2(1H)-one] | 26.0 ± 5.01 s | 13.0 ± 3.03 s | –
C/C=C1\[C@H]2C=C(C)C[C@]1(/N=C/C=C/c1cccc(OC)c1)c1ccc(=O)[nH]c1C2 [Example 19, (5R,9R,11E)-5-(3-(3-methoxylphenyl)prop-2-en-1-ylideneamino)-11-ethylidene-5,6,9,10-tetrahydro-7-methyl-5,9-methanocycloocta[b]pyridin-2(1H)-one] | 18.6 ± 3.44 s | 12.0 ± 2.53 s | –
C/C=C1\[C@H]2C=C(C)C[C@]1(N=CC=Cc1ccncc1)c1ccc(=O)[nH]c1C2 [Example 20, (5R,9R,11E)-5-(3-(pyridin-4-yl)prop-2-en-1-ylideneamino)-11-ethylidene-5,6,9,10-tetrahydro-7-methyl-5,9-methanocycloocta[b]pyridin-2(1H)-one] | 25.0 ± 5.18 s | 12.6 ± 2.42 s | –
